Numbered stars: 1 amine (or outer) side, 2 acyl side, 3 side chain; on linkers, the order of the positions; unused ones are H or OH. Square brackets hold non-standard residues; d marks the D form. Peptide text beside a SMILES is read from it. * marks the point of attachment. X2 = O=C(c1ccc(/C=C/c2ccc(N[*:1])cc2)cc1)[*:2]; X1 = O=C(CN(Cc1ccccn1)Cc1ccccn1)*
Key:
[1] = system: EBV-positive C666-1 xenografts; assay: C666-1 nude mice xenograft, intratumoral injection; type: in vivo, BALB/c nude mice; conditions: 18 days
BZLF1 (Zta) and BMRF1 = assay: IHC of EBV lytic proteins in C666-1-derived tumor tissues; type: in vivo, Epstein-Barr virus
[2] = system: Rta, BMRF1 and gp350/220 in EBV-positive NPC43 cells; assay: Western blot of EBV lytic proteins; type: cell-based, Epstein-Barr virus; conditions: 10 μM, 7 days
[3] = system: EBV-positive NPC43, C666-1, Raji cells; conditions: 1-20 μM, 5 days
[4] = system: EBV-negative HeLa xenografts; conditions: 4 μg/injection every three days, 19 days

Structure (SMILES): CSCC[C@H](NC(=O)[C@H](Cc1ccccc1)NC(=O)[C@H](Cc1ccc(O)cc1)NC(=O)c1ccc(/C=C/c2ccc(NC(=O)CN(Cc3ccccn3)Cc3ccccn3)cc2)cc1)C(=O)N[C@H](C(=O)N[C@@H](Cc1ccccc1)C(=O)O)C(C)C [ZRL5P2] (X1-[X2]YFMVF-OH)
- effect on tumor growth ([1]; 4 μg/injection intra-tumoral twice weekly): did not significantly affect tumor growth
- changes in body or organ weights compared to the vehicle control ([1]; 4 μg/injection): did not cause significant changes
- tumor areas positive for BMRF1 (IHC) (BZLF1 (Zta) and BMRF1): 1.15%
- protein levels of Rta and BMRF1 [2]: much weaker than that of ZRL5P4
- cytotoxicity / growth inhibition in EBV-positive cells [3]: least efficient
- changes in body weights compared to the control [4]: did not cause any significant changes

Reference: patent US11046731B2, “Zinc-binder based EBNA1-specific compounds” (priority 2018, dated 2021)
